Results reported in publication PMC10641236, “Influenza A virus replication has a stronger dependency on Raf/MEK/ERK signaling pathway activity than SARS-CoV-2” (Frontiers in Cellular and Infection Microbiology, 2023).
Read-outs that look alike come from different tables or passages of the source.

Experiments:
Calu-3 cells = format: cell-based; settings: human, 24 h
Protocol: (§1) Per well, 2.5 × 10^4 Caco-2 cells or 4 × 10^4 Calu-3 cells were seeded in 96-well plates (Greiner Bio-One, Kremsmünster, Austria) and incubated for 24 h at 37°C, 5% CO2. Cell viability was assessed using a WST-1 assay according to the manufacturer’s recommendations (Roche, Basel, Switzerland). For reference, cell viability was assessed at 0 h and after 24 h of treatment with different concentrations of zapnometinib in medium containing 1% DMSO. The measured cell viability was normalized to the 0-h control. The CC50 value was determined using the “Sigmoidal, 4PL, X is log(concentration)” equation in GraphPad Prism.

Caco-2 cells = format: cell-based; settings: human, 24 h
Protocol: as §1

[1] = test system: MEK1/2 (ERK1/2 phosphorylation); experiment: IC50 determination in virus-infected cells, pERK/ERK ratio by WES; format: cell-based, Homo sapiens; settings: for IC50: Homo sapiens
Protocol: Calu-3 and Caco-2 cells were seeded in 24-well plates (Greiner Bio-One GmbH, Frickenhausen, Germany) and grown to 90% confluence. The cells were washed once with infection medium [IMDM supplemented with 0.2% bovine serum albumin (BSA) (Carl Roth GmbH + Co. KG, Karlsruhe, Germany) and 1% penicillin–streptomycin] prior to infection with a multiplicity of infection (MOI) of 0.01 of IAV PR8 or SARS-CoV-2 for 1 h in 200 µL of infection medium per well. Afterwards, the virus inoculum was removed completely, and the cells were washed once with infection medium and then treated with 1 mL per well of different concentrations of zapnometinib in infection medium with 1% dimethyl sulfoxide (DMSO) (Merck Millipore, Burlington, MA, USA) for 24 h at 37°C, 5% CO2. Supernatants were harvested and stored at −80°C for subsequent determination of virus titer and EC50 value. Cell lysates were prepared as described in the “Preparation of cell lysates and WES™ analysis” section for WES™ analysis.
Cells were lysed using cold modified RIPA buffer [0.24% (w/v) tris base (Sigma-Aldrich, St. Louis, Missouri, USA), 0.88% (w/v) NaCl (Carl Roth, Karlsruhe, Germany), 0.2% (v/v) 500 mM ethylenediaminetetraacetic acid (EDTA) (Sigma-Aldrich, St. Louis, Missouri, USA), 1% (v/v) Triton X-100 (Sigma-Aldrich, St. Louis, Missouri, USA), 0.5% (w/v) sodium deoxycholate (Sigma-Aldrich, St. Louis, Missouri, USA), 0.1% (w/v) sodium dodecyl sulfate (SDS) (Carl Roth, Karlsruhe, Germany), 10% (v/v) glycerol (Carl Roth, Karlsruhe, Germany), 0.05% phenylmethylsulfonyl fluoride (PMSF) (Carl Roth, Karlsruhe, Germany), 0.01% Benzonase® Nuclease (Sigma-Aldrich, St. Louis, Missouri, USA), protease inhibitor cocktail (Roche, Basel, Switzerland), and phosphatase inhibitor cocktail (Roche, Basel, Switzerland) in water]. Determination of the protein concentration was performed using the Pierce™ BCA Protein Assay Kit (Thermo Fisher Scientific Inc., Waltham, MA, USA) according to the manufacturer’s instructions. The samples were analyzed by Wes™ using a total protein concentration of 0.25–0.5 µg/µL for each sample, the Jess/Wes Separation kit (12–230 kDa), primary antibodies against ERK1/2, p44/42 MAPK (137F5) Rabbit mAb (Cell Signaling Technology, Danvers, MA, USA, Cat. No. 4695S) and phospho-ERK1/2 (pERK1/2), Phospho-p44/42 MAPK (Erk1/2) (Thr202/Tyr204) (D13.14.4E), XP® Rabbit mAb (Cell Signaling Technology, Danvers, MA, USA, Cat. no. 4370S) in a 1:50 dilution, anti-Influenza A virus Nucleoprotein (NP) antibody (rabbit MAb) (Sino Biological, Beijing, China Cat.no 40208-R010) in a 1:150 dilution, SARS-CoV-2 nucleocapsid protein antibody (ProSci Inc., Poway, CA, USA, Cat. no. 35-580) in a 1:100 dilution, the anti-goat, anti-rabbit, and anti-mouse detection modules, and the EZ Standard Pack 1 (12–230 kDa), according to the manufacturer’s instructions. Analysis of the obtained data was performed using the Compass for SW 4.1.0 software, Microsoft Excel, and the GraphPad Prism 9.2.0 software. Ratios were calculated from the area under the curve of the respective detected signals.
Twenty-four hours before the experiment, the growth medium was exchanged to medium with respective FBS or BSA concentration. Then, cells were stimulated by the addition of tumor necrosis factor alpha (TNF-α) (Sigma-Aldrich, St. Louis, Missouri, USA) for 30 min at 37°C, 5% CO2, followed by treatment with different zapnometinib concentrations and a DMSO (solvent) control for 1 h. For determination of the IC50 value in cells infected with IAV PR8 or SARS-CoV-2, cells were infected with the respective virus and treated with zapnometinib for 24 h as described in the “Virus yield reduction assay” section. After incubation, cell lysates were prepared, and the samples were analyzed by WES™ as described in the “Preparation of cell lysates and WES™ analysis” section. The pERK/ERK ratio was calculated and normalized to the solvent control. […]

## O=C(O)c1ccc(F)c(F)c1Nc1ccc(I)cc1Cl [zapnometinib, 2-(2-chloro-4-iodophenylamino)-N-3,4-difluoro benzoic acid]
Calu-3 cells
  CC50: 303 µM
Caco-2 cells
  CC50: 360 µM
[1]; Caco-2 cells, IAV PR8, interpolated at EC50 5.72 µM
  Level of MEK activation (ERK phosphorylation) at EC50: 37%
[1]; Caco-2 cells, SARS-CoV-2, interpolated at EC50 22.9 µM
  Level of MEK activation (ERK phosphorylation) at EC50: 25%
[1]; Calu-3 cells, IAV PR8, interpolated at EC50 7.13 µM
  Level of MEK activation (ERK phosphorylation) at EC50: 25%
[1]; Calu-3 cells, SARS-CoV-2, interpolated at EC50 19.7 µM
  Level of MEK activation (ERK phosphorylation) at EC50: 10%
[1]; Caco-2, 24 h, read-out: IC50 value (ERK phosphorylation) in infected cells, IAV PR8-infected Caco-2 cells, MOI 0.01, 0.2% BSA, 24 h
  IC50: 2.24 µM
[1]; Caco-2, 24 h, read-out: IC50 value (ERK phosphorylation) in infected cells, SARS-CoV-2-infected Caco-2 cells, MOI 0.01, 0.2% BSA, 24 h, bottom plateau constrained to 0
  IC50: 5.65 µM
[1]; Calu-3, 24 h, read-out: IC50 value (ERK phosphorylation) in infected cells, IAV PR8-infected Calu-3 cells, MOI 0.01, 0.2% BSA, 24 h
  IC50: 1.01 µM
[1]; Calu-3, 24 h, read-out: IC50 value (ERK phosphorylation) in infected cells, SARS-CoV-2-infected Calu-3 cells, MOI 0.01, 0.2% BSA, 24 h
  IC50: 1.99 µM
